Experimental data published in US4948786A, “Composition for treatment of ischemic disorder in organs” (Takeda Chemical Industries, Ltd., priority 1988, dated 1990).
Structures can show the parent of a compound that is named as a salt.

Key:
[1] = tested on: Lipid Peroxidation in Rat Brain Homogenate; conditions: for Inhibitory Effect (%): final concentration 10^-4 M, 5% homogenate, pH 7.4, 37° C., 1 hour, vs DMSO reference, malonic dialdehyde by TBA method
[2] = tested on: ischemic-reperfused rat heart; assay: Reducing activity against the size of infarction in ischemic-reperfused rat heart; assay type: in vivo, rat (Wistar male); conditions: i.v.; for Size of Infarction (% of left ventrical) / Inhibition (% of Control): 30 minutes after ligation; for Size of Infarction (% of left ventrical): mean ± SEM, control 35.0 ± 2.9
Method: Reducing activity of α-EPC-Na(DL) against the size of infarction in ischemic-reperfused rat heart:
Wistar male rats (body weight […]) were anesthetized with pentobarbital and subjected to thoracetomy. The left anterior descending coronary artery (LAD) was ligated at its origin for 1 hour. Then, the ligation was released to allow reperfusion. After 30 to 60 minutes reperfusion, the chest was closed and the animals (rats) maintained in conscious state. After 24 hours, the animals (rats) were reanesthetized, and then the heart was excised. The left ventricles were cut parallel to the atrioventricular sulcus into slices. The slices were stained at 37° C. for 15 minutes using triphenyltetrazolium chloride, and the size of infarction was weighed.
α-EPC-Na dissolved in saline solution was administered into the femoral vein at doses of 0.3, 1 and 5 mg/kg 30 minutes after the ligation. For the control group, only saline solution was administered.

Acute toxicity (LD50) = conditions: in vivo, rat

For `CC(C)CCCC(C)CCCC(C)CCCC1(C)CCc2cc(OP(=O)(O)OC3=C(O)[C@@H]([C@@H](O)CO)OC3=O)ccc2O1` (mixture of isomers) [TPC-Na(DL), L-Ascorbic acid DL-tocoryl phosphate diester sodium salt], which “Inhibitory Effect (%)” value [1] is on record?
Its value is 35.7 ± 2.6%.

With `Cc1c(C)c2c(c(C)c1OP(=O)(O)OC1=C(O)[C@@H]([C@@H](O)CO)OC1=O)CCC(C)(CCCC(C)CCCC(C)CCCC(C)C)O2` (mixture of isomers) [α-EPC-Na(DL), L-Ascorbic acid, DL-α-tocopheryl phosphate diester sodium salt] as the compound, how does the “Size of Infarction (% of left ventrical)” value ([2]; 0.3 mg/kg) read?
The value was 32.4 ± 4.3 % of left ventrical.

What about the “Inhibition (% of Control)” value ([2]; 1.0 mg/kg) of the same compound?
The value was -22.3 % of Control.

And the “Size of Infarction (% of left ventrical)” value ([2]; 1.0 mg/kg)?
The value was 27.2 ± 2.8 % of left ventrical.

And the “size of myocardial infarction, reduced to” value ([2]; 5 mg/kg)?
The value was “about 50%”.

What about the “Inhibition (% of Control)” value ([2]; 5.0 mg/kg) of the same compound?
Its value is -47.7 % of Control.

And the “Size of Infarction (% of left ventrical)” value ([2]; 5.0 mg/kg)?
Its value is 18.3 ± 1.1 % of left ventrical.

And the “reduction of the size of myocardial infarction (in words)” value ([2]; 0.3, 1 and 5 mg/kg)?
Its value is “reduced the size of myocardial infarction dose-dependently”.

What about the LD50 (Acute toxicity (LD50); sc, subcutaneous administration) of the same compound?
The LD50 was 737 mg/kg.

And the LD50 (Acute toxicity (LD50); oral administration)?
The LD50 was greater than 10000 mg/kg.

What about the “Inhibitory Effect (%)” value [1] of the same compound?
Its value is 61.8 ± 38.1%.

With `Cc1cc(OP(=O)(O)OC2=C(O)[C@@H]([C@@H](O)CO)OC2=O)c(C)c2c1OC(C)(CCCC(C)CCCC(C)CCCC(C)C)CC2` (mixture of isomers) [β-EPC-K(DL), L-Ascorbic acid DL-β-tocopheryl phosphate diester potassium salt] as the compound, how does the “Inhibitory Effect (%)” value [1] read?
The value was 58.9 ± 19.4%.

Which “Inhibitory Effect (%)” value [1] does the source give for `Cc1c(C)c2c(c(C)c1O)CCC(C)(CCCC(C)CCCC(C)CCCC(C)C)O2` (racemic) [DL-α-tocopherol, reference compound] here?
The value was 50.8 ± 18.5%.

With `O=C1O[C@H]([C@@H](O)CO)C(O)=C1O` [L-ascorbic acid, reference compound] as the compound, how does the “inhibition of lipid peroxidation (in words)” value ([1]; 10^-4 M, rat brain homogenate) read?
Its value is “did not inhibit lipid peroxidation”.

And the “Inhibitory Effect (%)” value [1]?
Its value is 1.6 ± 15.0%.

Which “Inhibitory Effect (%)” value [1] does the source give for `Cc1c(OP(=O)(O)OC2=C(O)[C@@H]([C@@H](O)CO)OC2=O)cc2c(c1C)O[C@](C)(CCC[C@H](C)CCC[C@H](C)CCCC(C)C)CC2` [γ-EPC-K(D), L-Ascorbic acid D-γ-tocopheryl phosphate diester potassium salt] here?
Its value is 62.0 ± 8.2%.

Which “Inhibitory Effect (%)” value [1] does the source give for `Cc1cc(OP(=O)(O)OC2=C(O)[C@@H]([C@@H](O)CO)OC2=O)cc2c1O[C@](C)(CCC[C@H](C)CCC[C@H](C)CCCC(C)C)CC2` [δ-EPC-K(D), L-ascorbic acid D-δ-tocopheryl phosphate diester] here?
Its value is 38.1 ± 8.3%.
